From PubChem BioAssay AID977622 (Broad Institute, 2014)
Inconclusive results are not listed. Calls of active or inactive are those of the source.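 Rule for the calls: active = Green signal of the normal strain falls at least twice as much as red signal of the resistant mutant, with overall culture growth loss under a set limit; inconclusive = no clear call, values can overlap the other calls; inactive = the rest.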

Test system: E. coli WT ribosome GFP fluorescence, mixed culture, 24 h
Experiment: wild-type E. coli growth inhibition versus h38 humanized strain – h38 mutant RFP, wild-type GFP, cherry-pick, dose response (AID 977622)
[1] = E. coli mixed culture, 24 h, measured here: total growth OD600

Row | SMILES | AC50 | AC50 [1]
1 | O=C(CN(CCO)c1ccccc1)Nc1cccc(S(=O)(=O)N2CCCC2)c1 | > 100 µM (inactive) | –
2 | Fc1ccc(-c2nnc(-c3ccc4ccccc4c3)o2)cc1 | > 100 µM (inactive) | –
3 | C=CCNc1ccc2c(c1)OC[C@H](CC(C)C)NS2(=O)=O | – | > 100 µM
4 | Nc1[nH]c(C(=O)c2ccccc2)c(-c2ccc3c(c2)OCO3)c1C(=O)NCCc1c[nH]c2ccccc12 | – | > 100 µM
5 | Cn1cc(CN2CCCC(C(=O)Nc3cccc(-c4cc5ccccc5[nH]4)c3)C2)cn1 (stereo not drawn) | – | > 100 µM
6 | O=C(Nc1ccc(C(=O)Nc2ccccc2Cl)cc1)c1cccnc1 | – | > 100 µM
7 | S=c1nc(-c2cc(Cl)cc(Cl)c2)[nH][nH]1 | > 100 µM (inactive) | –
8 | COc1ccccc1C(=O)Nc1ccc2c(c1)nc1n2CCN(C2CCCCC2)C1 | > 100 µM (inactive) | –
9 | Cc1ccc(Nc2cc(C(=O)NCCCN3CCOCC3)c3ccccc3n2)cc1C | > 100 µM (inactive) | > 100 µM
10 | CC(=O)Oc1c(Cl)cc(N(C(C)=O)S(=O)(=O)c2ccccc2)c2ccccc12 | > 100 µM (inactive) | 47.2 µM
11 | CCOC(=O)c1sc(Nc2cccc(Cl)c2)nc1C | – | > 100 µM
12 | COc1ccc(OC2C(=O)N(Cc3ccc4c(c3)OCO4)C2c2cccs2)cc1 (stereo not drawn) | > 100 µM (inactive) | –
13 | O=C(Nc1cccc(O)c1)c1cc(-c2ccccc2Cl)on1 | > 100 µM (inactive) | –
14 | Nc1[nH]c(C(=O)c2ccccc2)c(-c2ccc(Cl)cc2)c1C(=O)NCCc1c[nH]c2ccccc12 | – | > 100 µM
15 | O=C(Cc1ccc(Br)cc1)Nc1cccc(-c2cn3c(n2)SCC3)c1 | > 100 µM (inactive) | > 100 µM
16 | Cc1ccc(CNC(=O)c2ccc(Br)o2)cc1 | > 100 µM (inactive) | –
17 | COc1ccc(NC(=O)CN(c2ccccc2OC)S(=O)(=O)c2cccs2)cc1Cl | – | > 100 µM
18 | NC(=O)c1ccsc1NC(=O)COC(=O)Cc1ccc(F)cc1 | – | > 100 µM
19 | CC1CN(CC(=O)Nc2nc3ccccc3s2)CC(C)O1 (stereo not drawn) | > 100 µM (inactive) | –
20 | O=C(NCCc1ccccc1)c1cccc(NC(=O)c2ccccc2)c1 | > 100 µM (inactive) | –
21 | Cc1ccsc1C(=O)OCC(=O)N1CCc2ccccc2C1 | > 100 µM (inactive) | > 100 µM
22 | O=C1C(c2ccccc2)c2ccccc2N1Cc1ccccc1 (stereo not drawn) | > 100 µM (inactive) | –
23 | COc1ccc([C@H]2C[C@H](O)C[C@@H](CCn3cc(-c4ccccc4)nn3)O2)cc1 | – | > 100 µM

Row | SMILES | AC50 | AC50 [1]
24 | COC(=O)c1cc2c(c3c4cc(F)ccc4n(S(=O)(=O)c4cccc(C)c4)c13)C(=O)N(Cc1ccco1)C2 | – | > 100 µM
25 | CC(C)Oc1ccc(C(CC(=O)O)NC(=O)C(Sc2ccccc2)c2ccccc2)cc1 (stereo not drawn) | > 100 µM (inactive) | > 100 µM
26 | CCNc1nc(N)c(C(=O)C23CC4CC(CC(C4)C2)C3)s1 | – | > 100 µM
27 | COc1ccc(C)c2sc(N(CCN(C)C)C(=O)c3ccc(S(=O)(=O)N(C)c4ccccc4)cc3)nc12 | – | > 100 µM
28 | Cc1noc(NS(=O)(=O)c2ccc(NC(=O)c3cc(-c4ccccc4Cl)nc4ccccc34)cc2)c1C | > 100 µM (inactive) | –
29 | CN(c1ccccc1)S(=O)(=O)c1cccc(NC(=O)CCN2C(=O)C3CCCCC3C2=O)c1 (stereo not drawn) | > 100 µM (inactive) | > 100 µM
30 | COc1ccc(C(=O)N(c2ccccc2)c2nccc3ccccc23)cc1OC | > 100 µM (inactive) | –
31 | Cc1ccc2oc(C(=O)N(CCO)Cc3ccccc3)c(C)c2c1 | > 100 µM (inactive) | 37.1 µM
32 | Cc1ccc(S(=O)(=O)NC(C)C(=O)NCc2ccc(Cl)cc2)cc1 (stereo not drawn) | – | > 100 µM
33 | C[C@]12C(=O)N(c3ccc(F)cc3)C(=O)N1[C@@H]1c3ccccc3OC[C@@H]1[C@H]2c1ccccc1 | – | > 100 µM
34 | Cc1ccc(C)c(N(CC(=O)NC2CCCC2)C(=O)c2oc(C(C)(C)C)cc2C)c1 | – | > 100 µM
35 | CCc1ccc2[nH]c(C(=O)Nc3ccc4c(c3)OCO4)cc2c1 | > 100 µM (inactive) | –
36 | Cc1cccc(CSCC(=O)N2CCN(S(=O)(=O)c3ccccc3C#N)CC2)c1 | > 100 µM (inactive) | –
37 | O=C(O)c1cccnc1SCc1ccccc1Cl | > 100 µM (inactive) | 42.8 µM
38 | COc1ccc(C#Cc2ccc([C@@H]3[C@@H](CO)N4CCCCN(C(=O)Nc5ccc(F)cc5)C[C@H]34)cc2)cc1 | – | 50.6 µM
39 | O=C(Cn1c(CO)nc2ccccc21)NCCc1ccc(F)cc1 | > 100 µM (inactive) | –
40 | O=c1[nH]c(C2CCCN(S(=O)(=O)c3ccccc3Cl)C2)nc2c1nnn2Cc1ccc2c(c1)OCCO2 (stereo not drawn) | > 100 µM (inactive) | –
41 | Cc1ccc2nc(-c3ccc(Cl)cc3)c(Cc3ccccc3C(F)(F)F)n2c1 | – | > 100 µM
42 | CCc1nn2cc(C(=O)c3cc(Cl)ccc3O)cnc2c1-c1ccc(F)cc1 | > 100 µM (inactive) | > 100 µM
43 | O=C(NCc1ccccc1)c1ccc(-c2cn[nH]c2)c2ccoc12 | – | > 100 µM
44 | NS(=O)(=O)c1cccc(NC(=O)c2cccc(-c3ccc(O)cc3)c2)c1 | > 100 µM (inactive) | 50.2 µM
45 | O=C1N[C@@H](Cc2ccccc2)COC(=O)[C@H](Cc2ccc(F)cc2)C/C=C\C[C@H]1CC(=O)N(CCO)Cc1ccccc1 | > 100 µM (inactive) | –
46 | O=C(NCc1ccccc1)c1ccc(-c2ccccc2F)o1 | > 100 µM (inactive) | 28.8 µM

Row | SMILES | AC50 | AC50 [1]
47 | Fc1ccc(Br)cc1SCCc1ccncc1 | – | > 100 µM
48 | C[C@@H]1CN([C@@H](C)CO)C(=O)c2cc(NC(=O)C3CC3)ccc2O[C@H]1CN(C)C(=O)Nc1ccc(C(F)(F)F)cc1 | > 100 µM (inactive) | –
49 | COc1ccc(OC)c(N(CC(=O)Nc2ccccc2F)S(=O)(=O)c2ccccc2)c1 | > 100 µM (inactive) | –
50 | COC(=O)c1c(NC(=O)c2ccccc2C(=O)O)sc2c1CCC2 | > 100 µM (inactive) | –
51 | COC(=O)c1ccc(OS(=O)(=O)c2ccc(NC(C)=O)cc2)cc1 | > 100 µM (inactive) | –
52 | COc1ccc(NC(=O)CSc2n[nH]c(-c3ccncc3)n2)c([N+](=O)[O-])c1 | > 100 µM (inactive) | > 100 µM
53 | COc1ccc(NC(=O)Nc2cccc3c2O[C@@H](CN(C)S(=O)(=O)c2ccc(Cl)cc2)[C@@H](C)CN([C@@H](C)CO)C3=O)cc1 | > 100 µM (inactive) | 47.3 µM
54 | CCOc1ccccc1N1CC(C(=O)Nc2cccc(S(=O)(=O)N3CCCCC3)c2)CC1=O (stereo not drawn) | – | > 100 µM
55 | CCCC[n+]1ccn(-c2nc3ccccc3nc2[N-]S(=O)(=O)c2cccs2)c1 | > 100 µM (inactive) | > 100 µM
56 | CC(=O)N1CCOc2ccc(S(=O)(=O)N(C)c3ccc(C)cc3)cc21 | > 100 µM (inactive) | –
57 | Cc1cc(C(N)=O)nn1-c1c(Cl)cc(Cl)cc1Cl | – | > 100 µM
58 | Clc1ccc(-c2nc3ccc(Br)cn3c2Cc2ccsc2)cc1 | > 100 µM (inactive) | 35 µM
59 | CCc1ccc(CN2CCCC(CNS(=O)(=O)c3ccc(OC)cc3)C2)cc1 (stereo not drawn) | – | > 100 µM
60 | O=C(CCNC(=O)c1ccco1)Nc1cccc(Br)c1 | > 100 µM (inactive) | > 100 µM
61 | Cc1n[nH]c(C)c1S(=O)(=O)N1CCCC(C(=O)Nc2ccc(Br)cc2)C1 (stereo not drawn) | – | > 100 µM
62 | CCOC(=O)c1cccc(OS(=O)(=O)Cc2ccccc2)c1 | > 100 µM (inactive) | > 100 µM
63 | COc1ccc(Cl)cc1C(=O)OCC(=O)c1ccc[nH]1 | > 100 µM (inactive) | –
64 | Cc1cc(C)cc(NC(=O)c2cccc(NC(=O)C3C4CC5OC(=O)C3C5C4)c2)c1 (stereo not drawn) | > 100 µM (inactive) | –
65 | CCCN1C(=O)C(O)(c2c(C)[nH]c3ccccc23)c2ccccc21 (stereo not drawn) | – | > 100 µM
66 | CC(OC(=O)CCc1nc2ccccc2c(=O)[nH]1)C(=O)c1ccc(Br)cc1 (stereo not drawn) | > 100 µM (inactive) | –
67 | O=[N+]([O-])c1ccc2nc(-c3ccccc3[N+](=O)[O-])[nH]c2c1 | > 100 µM (inactive) | > 100 µM
68 | O=C1c2cccc3cccc(c23)C(=O)N1CCCn1ccnc1 | > 100 µM (inactive) | 51.6 µM
69 | CCOc1ccc(OCCn2c(=S)[nH]c3c(N)ncnc32)cc1 | > 100 µM (inactive) | 39 µM

Row | SMILES | AC50 | AC50 [1]
70 | Cc1ccc(CNS(=O)(=O)c2ccc3c(c2)NC(=O)CS3)cc1 | > 100 µM (inactive) | 41 µM
71 | CC(=O)Nc1cccc(OCCCOc2cccc([N+](=O)[O-])c2)c1 | – | > 100 µM
72 | CN(Cc1ccc([N+](=O)[O-])cc1)c1ccccc1 | – | > 100 µM
73 | Cc1cc(-c2ccc(C)c(S(=O)(=O)NC(C)Cc3ccco3)c2)on1 (stereo not drawn) | > 100 µM (inactive) | 46.2 µM
74 | C[C@@H]1CN([C@H](C)CO)C(=O)CCCn2nncc2CO[C@@H]1CN(C)C(=O)Nc1ccc(C(F)(F)F)cc1 | > 100 µM (inactive) | –
75 | O=C(CC(c1ccccc1)c1cc(Br)ccc1O)N1CCCC1 (stereo not drawn) | > 100 µM (inactive) | –
76 | O=C(Nc1cccc(Cl)c1)N1C[C@@H]2[C@H](c3ccccc31)[C@@H](CO)N2CC1CCCCC1 | > 100 µM (inactive) | 50 µM
77 | O=C(CCc1nc2ccccc2s1)OCC(=O)c1ccc[nH]1 | > 100 µM (inactive) | –
78 | NS(=O)(=O)c1cc(C(=O)OCC(=O)Nc2ccccc2[N+](=O)[O-])ccc1Cl | – | > 100 µM
79 | CCN(CC)CCN(C(=O)c1ccc2c(c1)CCCC2)c1nc2ccc(F)cc2s1 | > 100 µM (inactive) | 46.3 µM
80 | CN(C)C(=O)C1C2NC(=S)N(c3cccc(Cl)c3)C1(C)Oc1ccc(Cl)cc12 (stereo not drawn) | > 100 µM (inactive) | > 100 µM
81 | O=C(O)c1ccc(Oc2ccc([N+](=O)[O-])cc2)c([N+](=O)[O-])c1 | > 100 µM (inactive) | –
82 | CC(C)(C)C1CCC(OCC(O)CN2CCN(c3ccccn3)CC2)CC1 (stereo not drawn) | > 100 µM (inactive) | 44.7 µM
83 | CSc1ccc(CN(C)C(=O)C(c2ccccc2)c2ccccc2)cc1 | – | > 100 µM
84 | CCN(CC)S(=O)(=O)c1cccc(NC(=O)CNc2cccc(S(=O)(=O)N3CCCC3)c2)c1 | > 100 µM (inactive) | –
85 | COCCN(C(=O)c1ccccc1F)c1nnc(-c2ccc(OC)cc2)s1 | > 100 µM (inactive) | > 100 µM
86 | Clc1ccc(-c2cn(-c3ccccc3)c3[n+]2CCS3)cc1 | > 100 µM (inactive) | –
87 | O=C(CCCOc1ccc(Cl)cc1Cl)Nc1ccccc1C(=O)O | > 100 µM (inactive) | –
88 | COc1ccc(-c2csc(NC(=O)c3ccoc3C)n2)cc1 | > 100 µM (inactive) | > 100 µM
89 | Cc1ccc(N(CC(O)Cn2nc(C)cc2C)S(=O)(=O)c2ccc3ccccc3c2)cc1 (stereo not drawn) | > 100 µM (inactive) | 43.1 µM
